In ChEMBL document CHEMBL1201862, “PubChem BioAssay data set” (2004):
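Tested at 5 concentrations; 48 h exposure; 96-well plates; endpoints linearly interpolated, else capped at highest concentration. GI50 marks 50% less growth.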 Activity calls are given as the source filed them. No stated cut-off is given here; in the data, active = GI50 up to about 1.1 µM and inactive = higher. *1 amine or outer side, *2 acyl side, *3 side chain or, on linkers, in order; H or OH if unused. Where a SMILES comes first, the peptide text is derived from it. Bridges are numbered along the chain shown (N, C = ends). Roman numbers before positions name the chains, in order. [ ]: non-standard residue; d: D form. Actinocin(1to9) = Cc1c2oc3c(C)ccc(C(=O)[*:2])c3nc-2c(C(=O)[*:1])c(N)c1=O; NMeV = CN[CH](C(=O)O)C(C)C; Sar = CNCC(=O)O

How the values were obtained:
Test in all cases: NCI anticancer screen, dose series, 48 h
[1] = tested on: MOLT-4
[2] = tested on: SNB-19
[3] = tested on: Malme-3M
[4] = tested on: SW-620
[5] = tested on: CAKI-1
[6] = tested on: SF-268
[7] = tested on: OVCAR-5
[8] = tested on: SF-539
[9] = tested on: BT-549
[10] = tested on: KM12
[11] = tested on: HCT-116
[12] = tested on: NCI/ADR-RES
[13] = tested on: Hs-578T
[14] = tested on: SK-MEL-5
[15] = tested on: DU-145
[16] = tested on: SR
[17] = tested on: OVCAR-3
[18] = tested on: T47D
[19] = tested on: HL-60
[20] = tested on: RPMI-8226

Nc1nc(N)nc(CCCc2nc(N)nc(N)n2)n1
GI50 [1]: > 100 µM (inactive)
GI50 [2]: > 100 µM (inactive)
GI50 [3]: > 100 µM (inactive)
GI50 [4]: > 100 µM (inactive)
GI50 [5]: > 100 µM (inactive)
GI50 [6]: > 100 µM (inactive)
GI50 [7]: > 100 µM (inactive)
GI50 [8]: > 100 µM (inactive)
GI50 [9]: > 100 µM (inactive)
GI50 [10]: > 100 µM (inactive)
GI50 [11]: > 100 µM (inactive)
GI50 [12]: > 100 µM (inactive)
GI50 [13]: > 100 µM (inactive)
GI50 [14]: > 100 µM (inactive)
GI50 [15]: > 100 µM (inactive)
GI50 [16]: > 100 µM (inactive)
GI50 [17]: > 100 µM (inactive)
GI50 [18]: > 100 µM (inactive)
GI50 [19]: > 100 µM (inactive)
GI50 [20]: > 100 µM (inactive)

CCCC(=O)O[C@H]1C=C2C[C@@]34SS[C@]5(CC6=C[C@H](OC(C)=O)[C@@H]7O[C@@H]7[C@H]6N5C3=O)C(=O)N4[C@@H]2[C@H]2O[C@H]21
GI50 [1]: 0.00904 µM (active)
GI50 [2]: 0.0126 µM (active)
GI50 [3]: 0.02 µM (active)
GI50 [4]: 0.00548 µM (active)
GI50 [5]: 0.0175 µM (active)
GI50 [6]: 0.00775 µM (active)
GI50 [7]: 0.0112 µM (active)
GI50 [8]: 0.0194 µM (active)
GI50 [9]: 0.021 µM (active)
GI50 [10]: 0.184 µM (active)
GI50 [11]: 0.00847 µM (active)
GI50 [12]: 0.0128 µM (active)
GI50 [13]: 0.0203 µM (active)
GI50 [14]: 0.12 µM (active)
GI50 [15]: 0.0356 µM (active)
GI50 [16]: < 0.005 µM (active)
GI50 [17]: 0.00738 µM (active)
GI50 [18]: 0.0256 µM (active)
GI50 [19]: 0.0644 µM (active)
GI50 [20]: 0.00524 µM (active)

Clc1ccc(C2=CCN3CC=C(c4ccc(Cl)cc4)C23)cc1
GI50 [1]: 5.28 µM (inactive)
GI50 [2]: 14.5 µM (inactive)
GI50 [3]: 13.6 µM (inactive)
GI50 [4]: 13.3 µM (inactive)
GI50 [5]: 14.3 µM (inactive)
GI50 [6]: 7.96 µM (inactive)
GI50 [7]: 3.78 µM (inactive)
GI50 [8]: 15.9 µM (inactive)
GI50 [9]: 11.6 µM (inactive)
GI50 [10]: 6.64 µM (inactive)
GI50 [11]: 5.98 µM (inactive)
GI50 [12]: 12.2 µM (inactive)
GI50 [13]: 13.5 µM (inactive)
GI50 [14]: 2.47 µM (inactive)
GI50 [15]: 14.7 µM (inactive)
GI50 [16]: 6.7 µM (inactive)
GI50 [17]: 12.6 µM (inactive)
GI50 [18]: 12.7 µM (inactive)
GI50 [19]: 4.78 µM (inactive)
GI50 [20]: 4.66 µM (inactive)

COC(=O)[C@@]1(Cc2ccc(OC(C)=O)cc2)Cc2cc3ccccc3n2N1
GI50 [1]: 26.8 µM (inactive)
GI50 [2]: 93.8 µM (inactive)
GI50 [3]: 47.5 µM (inactive)
GI50 [4]: 29.2 µM (inactive)
GI50 [5]: > 100 µM (inactive)
GI50 [6]: 60.4 µM (inactive)
GI50 [7]: 94.4 µM (inactive)
GI50 [8]: 58.7 µM (inactive)
GI50 [9]: 28.2 µM (inactive)
GI50 [10]: 60.7 µM (inactive)
GI50 [11]: 35 µM (inactive)
GI50 [12]: 26.5 µM (inactive)
GI50 [13]: 82.8 µM (inactive)
GI50 [14]: 18.2 µM (inactive)
GI50 [15]: 62.4 µM (inactive)
GI50 [16]: 13.5 µM (inactive)
GI50 [17]: 69.5 µM (inactive)
GI50 [18]: 24.8 µM (inactive)
GI50 [19]: 20.3 µM (inactive)
GI50 [20]: 26.6 µM (inactive)

CCOC(=O)/C=C(\C(=O)OCC)n1cc(C)c(=O)n(Cc2cnnn2CCCCOC(C)=O)c1=O
GI50 [1]: 2.64 µM (inactive)
GI50 [2]: 25.4 µM (inactive)
GI50 [3]: 1.82 µM (inactive)
GI50 [4]: 2.32 µM (inactive)
GI50 [5]: 3.23 µM (inactive)
GI50 [6]: 15.7 µM (inactive)
GI50 [7]: 17.4 µM (inactive)
GI50 [8]: 2.36 µM (inactive)
GI50 [9]: 8.28 µM (inactive)
GI50 [10]: 16.7 µM (inactive)
GI50 [11]: 6.53 µM (inactive)
GI50 [12]: 8.79 µM (inactive)
GI50 [13]: 17 µM (inactive)
GI50 [14]: 17.1 µM (inactive)
GI50 [15]: > 41.7 µM (inactive)
GI50 [16]: 1.9 µM (inactive)
GI50 [17]: 13.3 µM (inactive)
GI50 [18]: 21.7 µM (inactive)
GI50 [19]: 1.91 µM (inactive)
GI50 [20]: 7.36 µM (inactive)

CONC(C)=O
GI50 [1]: > 100 µM (inactive)
GI50 [2]: > 100 µM (inactive)
GI50 [3]: > 100 µM (inactive)
GI50 [4]: > 100 µM (inactive)
GI50 [5]: > 100 µM (inactive)
GI50 [6]: > 100 µM (inactive)
GI50 [7]: > 100 µM (inactive)
GI50 [8]: > 100 µM (inactive)
GI50 [9]: > 100 µM (inactive)
GI50 [10]: > 100 µM (inactive)
GI50 [11]: > 100 µM (inactive)
GI50 [12]: > 100 µM (inactive)
GI50 [13]: > 100 µM (inactive)
GI50 [14]: > 100 µM (inactive)
GI50 [15]: > 100 µM (inactive)
GI50 [16]: > 100 µM (inactive)
GI50 [17]: > 100 µM (inactive)
GI50 [18]: > 100 µM (inactive)
GI50 [19]: > 100 µM (inactive)
GI50 [20]: > 100 µM (inactive)

CCOC(=O)/C(=C\c1ccc(F)cc1)C(C)=O
GI50 [1]: 26.5 µM (inactive)
GI50 [2]: 33.8 µM (inactive)
GI50 [3]: 19.2 µM (inactive)
GI50 [4]: 16.5 µM (inactive)
GI50 [5]: 24.3 µM (inactive)
GI50 [6]: 29.1 µM (inactive)
GI50 [7]: 58.6 µM (inactive)
GI50 [8]: 34 µM (inactive)
GI50 [9]: 21.5 µM (inactive)
GI50 [10]: 24.3 µM (inactive)
GI50 [11]: 29.2 µM (inactive)
GI50 [12]: 35.6 µM (inactive)
GI50 [13]: 36.1 µM (inactive)
GI50 [14]: 24.4 µM (inactive)
GI50 [15]: 23.2 µM (inactive)
GI50 [16]: 19 µM (inactive)
GI50 [17]: 32.8 µM (inactive)
GI50 [18]: 21.8 µM (inactive)
GI50 [19]: 19.5 µM (inactive)
GI50 [20]: 21.8 µM (inactive)

CCCCCCCCCCCCCCCC(=O)N(CCCCCCCCCCC(=O)O)CC(O)C(O)C(OC1OC(CO)C(O)C(O)C1O)C(O)CO (stereo not given)
GI50 [1]: 28.4 µM (inactive)
GI50 [2]: 24.5 µM (inactive)
GI50 [3]: 19.5 µM (inactive)
GI50 [4]: 22.1 µM (inactive)
GI50 [5]: 64 µM (inactive)
GI50 [6]: 21.3 µM (inactive)
GI50 [7]: > 100 µM (inactive)
GI50 [8]: 21.3 µM (inactive)
GI50 [9]: 25.4 µM (inactive)
GI50 [10]: 18.8 µM (inactive)
GI50 [11]: 49.2 µM (inactive)
GI50 [12]: 25.7 µM (inactive)
GI50 [13]: 40.5 µM (inactive)
GI50 [14]: 33.5 µM (inactive)
GI50 [15]: 91 µM (inactive)
GI50 [16]: 29.1 µM (inactive)
GI50 [17]: > 100 µM (inactive)
GI50 [18]: 40.7 µM (inactive)
GI50 [19]: 22.6 µM (inactive)
GI50 [20]: 29.2 µM (inactive)

COc1ccc(CC2NC(=O)C(NC(=O)c3c4nc5c(C(=O)NC6C(=O)NC(Cc7ccc(OC)cc7)C(=O)N7CCCC7C(=O)N(C)CC(=O)N(C)C(C(C)C)C(=O)OC6C)ccc(C)c5oc-4c(C)c(=O)c3N)C(C)OC(=O)C(C(C)C)N(C)C(=O)CN(C)C(=O)C3CCCN3C2=O)cc1 (stereo not given) (I: TY(Me)P[Sar][NMeV] / II: TY(Me)P[Sar][NMeV]; ester I:1-I:C, II:1-II:C; linker I:N-II:N via Actinocin(1to9); configuration not given here)
GI50 [1]: < 0.001 µM (active)
GI50 [2]: < 0.001 µM (active)
GI50 [3]: < 0.001 µM (active)
GI50 [4]: < 0.001 µM (active)
GI50 [5]: 0.00869 µM (active)
GI50 [6]: 0.0219 µM (active)
GI50 [7]: 0.00267 µM (active)
GI50 [8]: < 0.001 µM (active)
GI50 [9]: 0.01 µM (active)
GI50 [10]: < 0.001 µM (active)
GI50 [11]: < 0.001 µM (active)
GI50 [12]: 0.48 µM (active)
GI50 [13]: 0.022 µM (active)
GI50 [14]: < 0.001 µM (active)
GI50 [15]: < 0.001 µM (active)
GI50 [16]: < 0.001 µM (active)
GI50 [17]: 0.0123 µM (active)
GI50 [18]: < 0.001 µM (active)
GI50 [19]: < 0.001 µM (active)
GI50 [20]: < 0.001 µM (active)
